Each molecule was assayed against T1, GST-tagged-Wee1 kinase (Homo sapiens, UniProt P30291) (assay: Wee1 time-resolved fluorescence equilibrium binding assay (displacement of Oregon Green-labeled ATP-competitive kinase probe)). Details: enzyme binding data; GST-tagged-Wee1 kinase 2 nM, fluorescent probe 300 nM, inhibitor 0.003 to 10 micromolar, 1 hour incubation; read-out: Wee-1 binding (Ki nM).
T1 construct: purchased Carnabio 05-177
T1 sequence (P30291 whole entry): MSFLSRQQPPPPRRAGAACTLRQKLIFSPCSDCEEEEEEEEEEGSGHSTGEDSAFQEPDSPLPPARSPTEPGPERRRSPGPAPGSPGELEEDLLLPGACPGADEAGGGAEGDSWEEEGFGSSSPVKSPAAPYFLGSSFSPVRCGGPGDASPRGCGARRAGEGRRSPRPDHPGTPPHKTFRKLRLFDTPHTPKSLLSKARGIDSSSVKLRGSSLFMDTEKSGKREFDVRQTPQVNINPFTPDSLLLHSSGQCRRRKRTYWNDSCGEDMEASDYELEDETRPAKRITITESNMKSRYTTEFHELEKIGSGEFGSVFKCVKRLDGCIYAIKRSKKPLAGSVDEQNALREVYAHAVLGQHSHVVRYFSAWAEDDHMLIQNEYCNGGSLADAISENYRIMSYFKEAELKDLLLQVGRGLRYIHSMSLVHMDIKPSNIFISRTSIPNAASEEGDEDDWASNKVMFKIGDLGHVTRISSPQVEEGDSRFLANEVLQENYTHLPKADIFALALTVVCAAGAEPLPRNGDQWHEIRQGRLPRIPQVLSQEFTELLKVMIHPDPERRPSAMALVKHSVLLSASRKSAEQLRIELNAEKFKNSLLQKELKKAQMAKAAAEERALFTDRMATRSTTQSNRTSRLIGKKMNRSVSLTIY
Protocol: Wee1 kinase was assayed using a time-resolved fluorescence equilibrium binding assay monitoring displacement of a rapidly reversible Oregon Green-labeled ATP-competitive kinase probe (N-(2-(2-(2-(4-(4-(5-chloro-4-(2-(1-hydroxycyclobutyl)thiazol-5-yl)-1H-pyrrolo[2,3-b]pyridin-2-yl)phenyl)piperazin-1-yl)ethoxy)ethoxy)ethyl)-2′,7′-difluoro-3′,6′-dihydroxy-3-oxo-3H-spiro[isobenzofuran-1,9′-xanthene]-5-carboxamide) by competitive Wee1 inhibitors.
Table 1 depicts enzyme binding data (Ki)for exemplary compounds.
`Cc1cn(-c2c(Cl)cccc2Cl)c(=O)c2cnc(Nc3ccc4c(c3)CN(C)CC4(C)C)nc12` [Example 79, 6-(2,6-dichlorophenyl)-8-methyl-2-[(2,4,4-trimethyl-1,2,3,4-tetrahydroisoquinolin-7-yl)amino]pyrido[4,3-d]pyrimidin-5(6H)-one] gave a Ki of 0.4 nM. `Cc1cn(-c2c(Cl)cccc2Cl)c(=O)c2cnc(Nc3ccc4c(c3)CNCC4)nc12` [Example 80, 6-(2,6-dichlorophenyl)-8-methyl-2-(1,2,3,4-tetrahydroisoquinolin-7-ylamino)pyrido[4,3-d]pyrimidin-5(6H)-one] was tested, and the Ki was 0.5 nM. `O=c1c2cnc(Nc3ccc4c(c3)CCNC4)nc2c(-c2ncc[nH]2)cn1-c1c(Cl)cccc1Cl` [Example 81, 6-(2,6-dichlorophenyl)-8-(1H-imidazol-2-yl)-2-(1,2,3,4-tetrahydroisoquinolin-6-ylamino)pyrido[4,3-d]pyrimidin-5(6H)-one] was tested, and the Ki was 0.4 nM. `CN1CCC(c2ccc(Nc3ncc4c(=O)n(-c5c(Cl)cccc5Cl)cc(C(F)F)c4n3)cc2)CC1` [Example 82, 6-(2,6-dichlorophenyl)-8-(difluoromethyl)-2-{[4-(1-methylpiperidin-4-yl)phenyl]amino}pyrido[4,3-d]pyrimidin-5 (6H)-one] gave a Ki of 0.1 nM. Work on `CN(C)C1Cc2ccc(Nc3ncc4c(=O)n(-c5c(Cl)cccc5Cl)cc(C(F)F)c4n3)cc2C1` (stereo not drawn) [Example 83, 6-(2,6-dichlorophenyl)-8-(difluoromethyl)-2-{[2-(dimethylamino)-2,3-dihydro-1H-inden-5-yl]amino}pyrido[4,3-d]pyrimidin-5(6H)-one] yielded a Ki of 0.2 nM. Work on `CN(C)C1CCN(c2ccc(Nc3ncc4c(=O)n(-c5c(Cl)cccc5Cl)cc(C(F)F)c4n3)cc2)CC1` [Example 84, 6-(2,6-dichlorophenyl)-8-(difluoromethyl)-2-({4-[4-(dimethylamino)piperidin-1-yl]phenyl}amino)pyrido[4,3-d]pyrimidin-5(6H)-one] yielded a Ki of 0.328 nM. In the case of `CC1(C)CNCc2cc(Nc3ncc4c(=O)n(-c5c(Cl)cccc5Cl)cc(C(F)F)c4n3)ccc21` [Example 85, 6-(2,6-dichlorophenyl)-8-(difluoromethyl)-2-[(4,4-dimethyl-1,2,3,4-tetrahydroisoquinolin-7-yl)amino]pyrido[4,3-d]pyrimidin-5(6H)-one], the Ki is reported as 0.265 nM. `O=c1c2cnc(Nc3ccc4c(c3)CNCC43CC3)nc2c(C(F)F)cn1-c1c(Cl)cccc1Cl` [Example 86, 6-(2,6-dichlorophenyl)-8-(difluoromethyl)-2-(2′,3′-dihydro-1′H-spiro[cyclopropane-1,4′-isoquinolin]-7′-ylamino)pyrido[4,3-d]pyrimidin-5(6H)-one] was tested, and the Ki was 0.305 nM. `O=c1c2cnc(Nc3ccc4c(c3)CNCC4)nc2c(C(F)F)cn1-c1c(Cl)cccc1Cl` [Example 87, 6-(2,6-dichlorophenyl)-8-(difluoromethyl)-2-(1,2,3,4-tetrahydroisoquinolin-7-ylamino)pyrido[4,3-d]pyrimidin-5(6H)-one] gave a Ki of 0.254 nM. `Cc1cccc(C)c1-n1cc(C)c2nc(Nc3ccc4c(c3)CN(C)CC43CC3)ncc2c1=O` [Example 88, 6-(2,6-dimethylphenyl)-8-methyl-2-[(2′-methyl-2′,3′-dihydro-1′H-spiro[cyclopropane-1,4′-isoquinolin]-7′-yl)amino]pyrido[4,3-d]pyrimidin-5(6H)-one] gave a Ki of 0.544 nM. `Cc1cccc(C)c1-n1cc(C)c2nc(Nc3ccc(N4CCC(N(C)C)CC4)cc3)ncc2c1=O` [Example 89, 2-({4-[4-(dimethylamino)piperidin-1-yl]phenyl}amino)-6-(2,6-dimethylphenyl)-8-methylpyrido[4,3-d]pyrimidin-5(6H)-one] gave a Ki of 0.897 nM. In the case of `Cc1cccc(Cl)c1-n1cc(C)c2nc(Nc3ccc4c(c3)CN(C)CC43CC3)ncc2c1=O` [Example 90, 6-(2-chloro-6-methylphenyl)-8-methyl-2-[(2′-methyl-2′,3′-dihydro-1′H-spiro[cyclopropane-1,4′-isoquinolin]-7′-yl)amino]pyrido[4,3-d]pyrimidin-5(6H)-one], the Ki is reported as 0.193 nM.

— US9718821B2, “Pyridopyrimidinone inhibitors of kinases” (AbbVie Inc., priority 2012, dated 2017)
